In US7098307B2, “Neo-tryptophan” (Mayo Foundation for Medical Education and Research, priority 1998, dated 2006):
Square brackets hold non-standard residues; d marks the D form. Peptide text beside a SMILES is read from it. Ala(indol-4-yl) = N[C@@H](Cc1cccc2[nH]ccc12)C(=O)O; NMeR = CN[C@@H](CCCNC(=N)N)C(=O)O; Tle = CC(C)(C)[C@H](N)C(=O)O

Columns and labels:
dopamine D2 receptors = molecular target: T1, dopamine D2 receptors (Homo sapiens, UniProt P14416); assay: Radiolabeled competitive binding, human brain tissue, dopamine
T1 construct: Human brain tissue; from tissue; host or cells: human brain tissue
T1 sequence (P14416 whole entry): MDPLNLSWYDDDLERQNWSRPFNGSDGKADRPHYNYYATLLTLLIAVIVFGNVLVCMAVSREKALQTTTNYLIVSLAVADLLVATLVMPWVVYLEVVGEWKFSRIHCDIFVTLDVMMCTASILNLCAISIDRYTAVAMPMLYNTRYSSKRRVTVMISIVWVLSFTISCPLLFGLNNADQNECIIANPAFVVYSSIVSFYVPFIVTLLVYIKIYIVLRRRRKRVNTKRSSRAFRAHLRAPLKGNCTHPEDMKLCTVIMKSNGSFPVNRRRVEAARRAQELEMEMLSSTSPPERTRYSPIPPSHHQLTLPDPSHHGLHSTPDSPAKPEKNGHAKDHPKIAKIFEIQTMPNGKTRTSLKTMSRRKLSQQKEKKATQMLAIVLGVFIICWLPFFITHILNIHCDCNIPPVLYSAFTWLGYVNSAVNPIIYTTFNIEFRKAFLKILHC

[1] = Apomorphine-induced climbing, sniffing and licking behavior in rats; assay type: in vivo, rat
Procedure: Apomorphine was used to assess the ability of NT analogs to act as neuroleptics. Briefly, male Sprague-Dawley rats were pretreated intraperitoneally with either NT69L or saline only. Thirty minutes following pretreatment, the rats received a subcutaneous injection of apomorphine (600 μg/kg). Occasionally, the effectiveness of NT69L was assessed by measuring antinociception and hypothermia just prior to apomorphine administration. Control animals included rats receiving NT69L followed by saline only, and rats receiving no treatment. The apomorphine was dissolved in oxygen-free boiled 0.9% NaCl solution containing 0.1% ascorbic acid and 0.1% metabisulfite to prevent oxidation. The volume of injection was 1 mL/kg under the loose skin at the back of the animal's neck. Inunediately following injection, the rats were placed in cages for observation. About 5–10 minutes later, behavioral monitoring was initiated and lasted for one hour. Climbing episodes were measured by observing the number of times the rat moved up and down in a vertical position during a two minute observation period. Statistical analysis was done using the Student's t-test with P<0.05 being considered significant. Graphs and ED50 data were generated using GraphPad Prism® software (version 2.01, GraphPad Software, Inc., San Diego, Calif.).

5HT2A receptor = 5HT2A receptor (Homo sapiens, UniProt P28223); assay: Competitive binding with [3H]ketanserin, human brain tissue
Chain of 5HT2A receptor (P28223 whole entry): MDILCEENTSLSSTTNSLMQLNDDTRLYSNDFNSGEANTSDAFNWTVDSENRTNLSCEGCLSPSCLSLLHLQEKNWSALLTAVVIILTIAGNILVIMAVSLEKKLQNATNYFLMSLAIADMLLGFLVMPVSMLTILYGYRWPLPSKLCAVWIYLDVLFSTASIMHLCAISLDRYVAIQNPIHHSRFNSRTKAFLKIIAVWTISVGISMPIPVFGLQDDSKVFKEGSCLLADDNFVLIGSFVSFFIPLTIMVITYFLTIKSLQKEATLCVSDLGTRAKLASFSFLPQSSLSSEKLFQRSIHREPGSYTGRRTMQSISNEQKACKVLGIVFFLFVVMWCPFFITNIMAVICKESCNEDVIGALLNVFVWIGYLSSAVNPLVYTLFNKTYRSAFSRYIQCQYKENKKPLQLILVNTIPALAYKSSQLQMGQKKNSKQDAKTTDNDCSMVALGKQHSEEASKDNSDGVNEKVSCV

[2] = Degradation in human plasma (HPLC peak area); assay type: in vitro ADME; conditions: human; 25% plasma, 37° C., 0.5 mg/mL polypeptide; read-out: half-time, Plasma Human (converted)
Source text: (§1) For the degradation studies, data were plotted in linear form as a semi-log plot with SigmaPlot for Windows Version 4.00. Linear regression on these plots provided the parameters used to calculate the half-time (t1/2) for degradation of each polypeptide. The correlation coefficient (R) for the linear regression was taken as a measure of the goodness-of-fit.

[3] = Blood glucose and hormone levels in rats; assay type: in vivo, rat; conditions: 1 mg/kg ip
[4] = Degradation in rat intestinal preparation; assay type: in vitro ADME; conditions: pH 7.4, 37° C., read-out: half-time, Rat Intestinal Preparation (converted)
Procedure: For intestinal preparations, rats were sacrificed by decapitation, and the small intestines removed. The tissue was washed with ice-cold PBS (10 mM, pH 7.4). About […] of intestinal tissue was added to about 10 mL of PBS and homogenized using a Brinkman polytron homogenizer (setting 6). After homogenization, 10 mL of PBS was added to 10 mL of the intestinal homogenate. […] The supernatant was removed and stored at −20° C. until testing. Immediately before incubation with the polypeptide, the intestinal preparation was filtered through a 0.2 μm filter. Testing procedures were similar to those for the plasma tests.
as §1

human NTR1 = molecular target: T2, human NTR1 (Homo sapiens, UniProt P30989); assay: Competition binding with [3H]NT, membranes of CHO-K1 cells transfected with human NTR1
T2 construct: expressed in transfected cells; host or cells: CHO-K1
T2 sequence (P30989 whole entry): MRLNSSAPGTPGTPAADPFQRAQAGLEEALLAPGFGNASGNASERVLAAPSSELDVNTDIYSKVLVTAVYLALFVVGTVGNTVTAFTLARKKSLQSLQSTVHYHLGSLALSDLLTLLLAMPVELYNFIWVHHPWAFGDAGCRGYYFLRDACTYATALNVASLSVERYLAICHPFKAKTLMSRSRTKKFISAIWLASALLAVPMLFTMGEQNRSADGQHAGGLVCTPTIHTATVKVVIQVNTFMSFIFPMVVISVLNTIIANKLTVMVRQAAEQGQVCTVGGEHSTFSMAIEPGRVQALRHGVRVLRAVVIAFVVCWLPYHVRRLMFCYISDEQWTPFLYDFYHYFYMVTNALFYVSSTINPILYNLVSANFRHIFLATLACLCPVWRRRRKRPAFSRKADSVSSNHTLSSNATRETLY
Procedure: CHO-K1 cells were stably transfected with nucleic acid encoding either the human NTR1 or the rat NTR1, and cultured in 150 mm petri plates with 35 mL of Dulbecco-modified Eagle's medium containing 100 μM minimal essential medium nonessential amino acids (GIBCO) supplemented with 5% (v/v) FetalClone II bovine serum product (Hyclone Labs, Logan, Utah). CHO cells (subculture 9–19) were harvested at confluency. Briefly, the medium from each plate was removed by aspiration, and the cells washed with 6 mL of 50 mM Tris-HCl (pH 7.4) and resuspended in 5–10 mL of Tris-HCl by scraping the cells with a rubber spatula. The resuspended cells were placed into a centrifuge tube and collected by centrifugation at 300× g for five minutes at 4° C. in a GPR centrifuge (Beckman Instruments, Fullerton, Calif.). The cellular pellet (in 50 mM Tris-HCl, 1 mM EDTA, pH 7.4) was stored at […] until radioligand binding was performed.
The supernatant was decanted and discarded, and the cellular pellet was resuspended in 2 mL of Tris-HCl, 1 mM EDTA (pH 7.4) followed by homogenization with a Brinkmann Polytron at setting 6 for ten seconds. Centrifugation was repeated as above and the supernatant was decanted and discarded. The resulting final cellular pellet was resuspended in 50 mM Tris-HCl, lmM EDTA, 0.1% bovine serum albumin, and 0.2 mM bacitracin.
Incubation was at 20° C. for 30 minutes. Each reaction was terminated by addition of cold 0.9% NaCl (5×1.5 mL) followed by rapid filtration through a GF/B filter strip that had been pretreated with 0.2% polyethylenimine.

[5] = Degradation in rat plasma (HPLC peak area); assay type: in vitro ADME; conditions: 25% plasma, 37° C., 0.5 mg/mL polypeptide, read-out: half-time, Plasma Rat (converted)
Source text: as §1

α2-adrenergic receptors = assay: Radiolabeled competitive binding, human brain tissue, adrenergic α2
[6] = Body weight and food intake in rats; assay type: in vivo, rat; conditions: for increase from original body weight at day 15: saline 29%
Procedure: Two groups of male Sprague-Dawley rats (small and large) and one group of genetically obese Zucker rats were used to study the influence of NT69L on various aspects of body weight. The group of small Sprague-Dawley rats weighed about 270 g at the beginning of the study, while the group of large Sprague-Dawley rats weighted about 400 g. […] The rats had free access to commercial hard rat chow pellets and tap water. During the study, the rats received 100 μL of either saline only or 1 μg/kg, 10 μg/kg, or 1 mg/kg of NT69L on days 1, 2, 7, 8, 11, and 12. Food intake (g), water consumption (mL), and body weight (g) were recorded daily for 15 days. The results were presented as mean ± SEM, or as % of original weight. The data were compared by variance analysis (unpaired or paired Student's t test) and Rank sum test.

[7] = 1 mg/kg ip, 30 minutes before apomorphine

For `CN[C@@H](CCCNC(=N)N)C(=O)N[C@@H](CCCCN)C(=O)N1CCC[C@H]1C(=O)N[C@@H](Cc1cccc2[nH]ccc12)C(=O)N[C@H](C(=O)N[C@@H](CC(C)C)C(=O)O)C(C)(C)C` [NT69L] (H-[NMeR]KP[Ala(indol-4-yl)][Tle]L-OH; N-terminus and C-terminus assumed), the Kd (dopamine D2 receptors) was 13.3 µM, the “effect on apomorphine-induced climbing behavior” value [1, 7] was “long-lasting blockade of the climbing behavior” and the “effect on apomorphine-induced sniffing and licking behaviors” value [1, 7] was “did not influence”. For the same molecule, the “effect on apomorphine-induced climbing behavior” value ([1]; 5 mg/kg ip) was “completely blocked”, the “ED50 blockade of apomorphine-induced climbing” value ([1]; ip, 75 minutes after NT69L, 45 minutes after apomorphine 600 μg/kg sc) was 0.016 mg/kg and the Kd (5HT2A receptor) was 34.6 µM. For the same molecule, the half-life at 0.5 mg/mL [2] was 20.8 days, the T4 level ([3]; Sprague-Dawley rats, one hour post injection, saline 2.6) was 1.8 µg/dL and the corticosterone level ([3]; Sprague-Dawley rats, one hour post injection, saline 6.1) was 24.6 µg/dL. The TSH level ([3]; Sprague-Dawley rats, one hour post injection, saline 7.65) was 0.9 mIU/L, the glucose level ([3]; Sprague-Dawley rats, one hour post injection, saline 130) was 221 mg/dL and the T4 ([3]; Zucker rats, one hour after injection, control 1.47) was 1.03 µg/dL. It also gave a TSH ([3]; Zucker rats, one hour after injection, control 1.9) of 0.43 mIU/L, a corticosterone ([3]; Zucker rats, one hour after injection, control 10.9) of 19.7 µg/dL and a blood glucose ([3]; Zucker rats, one hour after injection, control 140) of 310 mg/dL. For the same molecule, the half-life [4] was 0.171 days, the Kd (human NTR1) was 0.00155 ± 9e-05 µM and the “increase in binding affinity at the human receptor versus Eisai” value (human NTR1) was 60 fold. The half-life at 0.5 mg/mL [5] was 10.4 days, the Kd (α2-adrenergic receptors) was 58.6 µM and the “food intake versus saline controls” value ([6]; Zucker rats, one to two days post injection) was “significantly reduced”. The “increase in original body weight by day 15” value ([6]; genetically obese Zucker rats, 1 mg/kg ip, saline 31%) was 25%, the “reduction in original body weight by day 15” value ([6]; large Sprague-Dawley rats, 1 mg/kg ip, saline […] increase) was 3.0% and the “food intake versus saline controls” value ([6]; large Sprague-Dawley rats, one to two days post injection) was “significantly (P<0.003) less”. For the same molecule, the “increase from original body weight at day 15” value ([6]; small Sprague-Dawley rats, 1 μg/kg ip) was 9.0%, the “increase from original body weight at day 15” value ([6]; small Sprague-Dawley rats, 10 μg/kg ip) was 8.4% and the “food intake versus saline controls” value ([6]; small Sprague-Dawley rats, throughout the experiment) was “significantly (P<0.003) less”.
